# Publication PMC3174152, “Pseudomonas aeruginosa 4-Amino-4-Deoxychorismate Lyase: Spatial Conservation of an Active Site Tyrosine and Classification of Two Types of Enzyme” (PLoS ONE, 2011)
# Biological target: T1, PaPabC (Pseudomonas aeruginosa, UniProt Q9HZN6)
# T1 construct: gene pabC; full length (271 residues), N-terminal His6 tag with TEV site kept (not cleaved), modified pET15b, E. coli BL21(DE3) Gold; homodimer, about 50 kDa
# T1 sequence (Q9HZN6 1-271): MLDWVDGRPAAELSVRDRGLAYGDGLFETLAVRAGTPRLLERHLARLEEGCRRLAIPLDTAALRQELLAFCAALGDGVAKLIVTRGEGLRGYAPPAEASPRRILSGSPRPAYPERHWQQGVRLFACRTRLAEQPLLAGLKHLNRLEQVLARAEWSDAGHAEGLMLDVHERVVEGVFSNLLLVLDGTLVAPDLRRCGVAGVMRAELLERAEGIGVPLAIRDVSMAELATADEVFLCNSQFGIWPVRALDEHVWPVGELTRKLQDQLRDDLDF
# Experiment: X-ray crystal structure ([…] Å), omit map
# Assay type: binding
# Settings: covalent, Schiff base with Lys140; Tyr92 of partner subunit contacts PLP O3; crystallised with 0.1 mM PLP and 10 mM PABA, pH 6.5
compound,measurement,value
Cc1ncc(COP(=O)(O)O)c(C=O)c1O [PLP],"X-ray crystal structure (1.75 Å), omit map",The presence of the PLP cofactor covalently bound to Lys140 was confirmed
